Test results: patent US20110223149A1, “PEPTIDOMIMETIC MACROCYCLES” (AILERON THERAPEUTICS, INC., priority 2009, published 2011)
Where a SMILES comes first, the peptide text is derived from it. Bridges are numbered along the chain shown (N, C = ends). [ ]: non-standard residue; d: D form. S5 = C=CCCC[C@](C)(N)C(=O)O

Legend:
Bcl-xL = Bcl-xL (Homo sapiens, UniProt Q07817); assay: Protein-ligand binding experiment by SEC-LC-MS; settings: 1 μM SP-4 and 5 μM Bcl-xL, 60 min at room temperature
Method: Protein-ligand binding experiments for Bcl-xL. Simple protein-ligand binding experiments were conducted using the following representative procedure outlined for a simple system-wide control experiment using 1 μM SP-4 and 5 μM Bcl-xL. A 1 μL, DMSO aliquot of a 40 μM stock solution of SP-4 is dissolved in 19 μL of PBS (Phosphate-buffered saline: 50 mM, pH 7.5 Phosphate buffer containing 150 mM NaCl). The resulting solution is mixed by repeated pipetting and clarified by centrifugation at 10 000 g for 10 min. To a 4 μL, aliquot of the resulting supernatant is added 4 μL, of 10 μM BCL-xL in PBS. Each 8.0 μL experimental sample thus contains 40 pmol (1.5 μg) of protein at 5.0 μM concentration in PBS plus 1 μM SP-4 and 2.5% DMSO. Duplicate samples thus prepared for each concentration point are incubated for 60 min at room temperature, and then chilled to 4° C. prior to size-exclusion chromatography-LC-MS analysis of 5.0 μL injections. Samples containing a target protein, protein-ligand complexes, and unbound compounds are injected onto an SEC column, where the complexes are separated from non-binding component by a rapid SEC step. The SEC column eluate is monitored using UV detectors to confirm that the early-eluting protein fraction, which elutes in the void volume of the SEC column, is well resolved from unbound components that are retained on the column. […]

Cathepsin D = Cathepsin D (Homo sapiens, UniProt P07339); type: in vitro ADME; settings: pH 4.4
Method: For identification of Cathepsin B, D, and L metabolism, parent cross-linked peptide and positive control linear peptide (4 mM each in DMSO) was separately aliquoted (5 μL) to 1 mL volumes of 67 mM ammonium acetate solutions buffered either to pH 5.4 (cat B, L) and add 10 mM DTT, or to pH 4.4 (cat D) and add 0.117M KCl. Single enzyme working solution (10 μg/mL) was then added (40 μL) to each peptide solution (20 μM) to yield initial weight ratio (%) of 1:20 for each enzyme and peptide pair. Each mixture was placed in a 38-40° C. oven for incubation times of 30 and 60 min. At each time point, the reaction was stopped by addition of 500 μL of 48:48:2 v/v(%) hexafluoro-2-propanol/acetonitrile/TFA. A biphasic mixture formed after mixing and the bottom layer liquid was diluted (1:10) into acetonitrile: water and subsequently injected in duplicate for gradient LC/Ion Mobility TOF-MS analyses.
Ion mobility-MS and MS-MS analysis and peptide sequencing were performed on a Waters (Milford, Mass.) Synapt high-resolution ion-mobility-time-of flight mass spectrometer. Samples were prepared by dilution of the unpurified cross-linked peptide proteolysis product samples 10-fold into 1:1 acetonitrile-water containing 0.1% formic acid. LC-MS analyses were performed by reverse-phase gradient elution with 0.1% formic acid and 0.1% formic acid in acetonitrile as eluants at 500 μL/min. […]

Bcl-xL, sequence (Q07817 whole entry, species assumed): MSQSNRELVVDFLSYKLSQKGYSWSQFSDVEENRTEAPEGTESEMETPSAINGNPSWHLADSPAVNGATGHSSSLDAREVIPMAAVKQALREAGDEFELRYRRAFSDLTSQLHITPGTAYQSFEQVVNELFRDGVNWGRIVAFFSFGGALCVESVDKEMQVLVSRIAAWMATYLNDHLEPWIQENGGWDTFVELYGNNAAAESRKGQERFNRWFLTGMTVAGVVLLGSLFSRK
Cathepsin D, sequence (P07339 65-412, species assumed): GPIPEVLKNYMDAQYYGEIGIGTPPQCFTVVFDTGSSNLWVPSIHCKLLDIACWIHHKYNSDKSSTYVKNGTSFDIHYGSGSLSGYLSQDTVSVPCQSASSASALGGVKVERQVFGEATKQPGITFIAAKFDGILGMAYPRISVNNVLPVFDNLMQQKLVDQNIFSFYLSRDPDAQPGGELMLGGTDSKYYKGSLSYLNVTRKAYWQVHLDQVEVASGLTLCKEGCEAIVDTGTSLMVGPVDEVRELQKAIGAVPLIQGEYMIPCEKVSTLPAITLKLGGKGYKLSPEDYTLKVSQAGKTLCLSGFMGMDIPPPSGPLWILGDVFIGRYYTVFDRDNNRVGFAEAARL

| Compound | detection of protein-ligand complex with Bcl-xL (Bcl-xL) | cleavage site by cathepsin-D (proteolysis products) (Cathepsin D) |
| --- | --- | --- |
| Ac-IWIAQALR$IGD$FNAYYARR-NH2 [SP-4] | detection of the protein-ligand complex | – |
| CC[C@H](C)[C@H](NC(=O)[C@H](Cc1c[nH]c2ccccc12)NC(=O)[C@H](CCCNC(=N)N)NC(C)=O)C(=O)N[C@@H](C)C(=O)N[C@@H](CCC(N)=O)C(=O)N[C@@H](C)C(=O)N[C@@H](CC(C)C)C(=O)N[C@@H](CCCNC(=N)N)C(=O)N[C@@]1(C)CCC/C=C\CCC[C@@](C)(C(=O)N[C@@H](Cc2ccccc2)C(=O)N[C@@H](CC(N)=O)C(=O)N[C@@H](C)C(=O)N[C@@H](Cc2ccccc2)C(=O)N[C@@H](Cc2ccc(O)cc2)C(=O)N[C@@H](C)C(=O)N[C@@H](CCCNC(=N)N)C(=O)N[C@@H](CCCNC(=N)N)C(N)=O)NC(=O)[C@H](CC(=O)O)NC(=O)CNC(=O)[C@H]([C@@H](C)CC)NC1=O [SP-1, Ac-RWIAQALR$IGD$FNAFYARR-NH2] (Ac-RWIAQALR[S5]IGD[S5]FNAFYARR-NH2; staple (Z) 9-13) | – | at F—Y residues |
